Laboratory results from the supplement of paper PMC5908809.

Tests used:
[1] = system: normal NK cells expanded with K562-aAPC; assay: drug sensitivity score (DSS) (DSS units); higher = more sensitive; extreme values may be limits of the assay; settings: 72 h; IL-2 2.5 ng/mL
Experimental: (§1)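 Drug sensitivity and resistance testing on K562-aAPC-expanded normal NK cells: 5 concentrations (10-fold steps over a 10,000-fold range), 72 h at 37 °C, viability by CellTiter-Glo normalised to DMSO and benzethonium chloride controls; DSS from the fitted curve.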

[2] = system: normal NK cells expanded with K562-aAPC; assay: percent inhibition of viability; higher = more inhibition; settings: 72 h, IL-2 2.5 ng/mL
Experimental: as §1

NK-YS (IL-2 2.5 ng/mL) [3] = assay: drug sensitivity score (DSS) (DSS units); higher = more sensitive; extreme values may be limits of the assay; settings: 72 h
[4] = system: normal primary NK cells, pool 2 (3 donors) (IL-2 2.5 ng/mL); assay: as above; settings: 72 h
[5] = system: normal primary NK cells, pool 1 (3 donors) (IL-2 2.5 ng/mL); assay: as above; settings: 72 h
SNK-6 (IL-2 2.5 ng/mL) [6] = assay: as above; settings: 72 h
KHYG-1 (IL-2 2.5 ng/mL) [7] = assay: as above; settings: 72 h
DERL-7 (IL-2 2.5 ng/mL) [8] = assay: as above; settings: 72 h
[9] = system: normal primary NK cells, pool 3 (3 donors) (IL-2 2.5 ng/mL); assay: as above; settings: 72 h
NKL (IL-2 2.5 ng/mL) [10] = assay: as above; settings: 72 h
[11] = system: normal primary NK cells, pool 1 (3 donors), resting (IL-2 0 ng/mL); assay: as above; settings: 72 h
KAI3 (IL-2 2.5 ng/mL) [12] = assay: as above; settings: 72 h
YT (IL-2 2.5 ng/mL) [13] = assay: as above; settings: 72 h
NK-92 (IL-2 2.5 ng/mL) [14] = assay: as above; settings: 72 h
IMC-1 (IL-2 20 ng/mL) [15] = assay: as above; settings: 72 h
NK-YS (IL-2 2.5 ng/mL) [16] = assay: percent inhibition of viability; higher = more inhibition; settings: 72 h
[17] = system: normal primary NK cells, pool 2 (3 donors) (IL-2 2.5 ng/mL); assay: as above; settings: 72 h
[18] = system: normal primary NK cells, pool 1 (3 donors) (IL-2 2.5 ng/mL); assay: as above; settings: 72 h
SNK-6 (IL-2 2.5 ng/mL) [19] = assay: as above; settings: 72 h
KHYG-1 (IL-2 2.5 ng/mL) [20] = assay: as above; settings: 72 h
DERL-7 (IL-2 2.5 ng/mL) [21] = assay: as above; settings: 72 h
[22] = system: normal primary NK cells, pool 3 (3 donors) (IL-2 2.5 ng/mL); assay: as above; settings: 72 h
NKL (IL-2 2.5 ng/mL) [23] = assay: as above; settings: 72 h
[24] = system: normal primary NK cells, pool 1 (3 donors), resting (IL-2 0 ng/mL); assay: as above; settings: 72 h
KAI3 (IL-2 2.5 ng/mL) [25] = assay: as above; settings: 72 h
YT (IL-2 2.5 ng/mL) [26] = assay: as above; settings: 72 h
NK-92 (IL-2 2.5 ng/mL) [27] = assay: as above; settings: 72 h
IMC-1 (IL-2 20 ng/mL) [28] = assay: as above; settings: 72 h

CCOc1cc2ncc(C#N)c(Nc3ccc(OCc4ccccn4)c(Cl)c3)c2cc1NC(=O)/C=C/CN(C)C [Neratinib] (max concentration tested 1000 nM)
Settings	drug sensitivity score
DERL-7 (IL-2 2.5 ng/mL) [8]	5.21
IMC-1 (IL-2 20 ng/mL) [15]	0
KAI3 (IL-2 2.5 ng/mL) [12]	2.59
KHYG-1 (IL-2 2.5 ng/mL) [7]	1.72
NK-92 (IL-2 2.5 ng/mL) [14]	4.28
NK-YS (IL-2 2.5 ng/mL) [3]	0.13
NKL (IL-2 2.5 ng/mL) [10]	3.24
SNK-6 (IL-2 2.5 ng/mL) [6]	0
YT (IL-2 2.5 ng/mL) [13]	0
[1]	4.02
[4]	1.38
[5]	1.29
[9]	0.26
[11]	3.36

percent inhibition of viability [%]
Settings	0.1 nM	1 nM	10 nM	100 nM	1000 nM
DERL-7 (IL-2 2.5 ng/mL) [21]	-7.68	3.12	6.29	8.45	68.9
IMC-1 (IL-2 20 ng/mL) [28]	-2.69	-1.05	1.8	4.28	1.07
KAI3 (IL-2 2.5 ng/mL) [25]	-4.25	-5.47	-6.36	0.65	48.1
KHYG-1 (IL-2 2.5 ng/mL) [20]	4.6	-0.87	25.1	2.37	22
NK-92 (IL-2 2.5 ng/mL) [27]	3.19	-13.2	7.23	7.67	55.4
NK-YS (IL-2 2.5 ng/mL) [16]	-2.05	-4.96	-1.85	-5.03	15.2
NKL (IL-2 2.5 ng/mL) [23]	-1.48	12.9	8.45	12.5	40.4
SNK-6 (IL-2 2.5 ng/mL) [19]	11	16.1	38.2	6.35	35.7
YT (IL-2 2.5 ng/mL) [26]	1.33	4.12	5.46	1.01	10.2
[2]	-2.53	0.83	-1.65	8.19	50
[17]	-8.13	-2.28	2.22	-1.98	33.3
[18]	-6.45	-7.28	-6.63	-9.14	36.2
[22]	-13.9	-5.37	-1.66	-10.9	18.9
[24]	-2.47	-22.5	-7.51	-6.96	70.1

COCC1(CO)C(=O)C2CCN1CC2 (stereo not drawn) [APR-246] (max concentration tested 10000 nM)
Settings	drug sensitivity score
DERL-7 (IL-2 2.5 ng/mL) [8]	0.03
IMC-1 (IL-2 20 ng/mL) [15]	0
KAI3 (IL-2 2.5 ng/mL) [12]	0.58
KHYG-1 (IL-2 2.5 ng/mL) [7]	0
NK-92 (IL-2 2.5 ng/mL) [14]	0.65
NK-YS (IL-2 2.5 ng/mL) [3]	1.17
NKL (IL-2 2.5 ng/mL) [10]	3.01
SNK-6 (IL-2 2.5 ng/mL) [6]	3.96
YT (IL-2 2.5 ng/mL) [13]	0
[1]	5.95
[4]	15.7
[5]	14.2
[9]	15.2
[11]	16.9

percent inhibition of viability [%]
Settings	1 nM	10 nM	100 nM	1000 nM	10000 nM
DERL-7 (IL-2 2.5 ng/mL) [21]	4.22	1.94	4.99	-6.45	12.9
IMC-1 (IL-2 20 ng/mL) [28]	-7.37	-2.9	-3.59	8.76	9.03
KAI3 (IL-2 2.5 ng/mL) [25]	-1.81	0.4	-2.31	2.12	16.5
KHYG-1 (IL-2 2.5 ng/mL) [20]	-5.21	-0.64	-2.81	5.38	7.34
NK-92 (IL-2 2.5 ng/mL) [27]	-5.03	9.77	10.8	10.9	10.2
NK-YS (IL-2 2.5 ng/mL) [16]	-7.21	1.41	3.46	5.78	20.9
NKL (IL-2 2.5 ng/mL) [23]	-3.21	-5.06	5.12	11	36.4
SNK-6 (IL-2 2.5 ng/mL) [19]	4.82	6.66	11.8	20.5	26.2
YT (IL-2 2.5 ng/mL) [26]	-1.79	-3.13	4.5	1.6	7.67
[2]	-2.16	1.78	5.44	14.3	66.4
[17]	-11.3	-4.04	11.3	77	96
[18]	0.39	-11.5	5.91	70.5	98
[22]	-9.08	-4.43	12.5	73	98
[24]	-1.14	-6.72	13.5	82.8	91.7
